In ChEMBL document CHEMBL3639083, “6,7-unsaturated-7-carbamoyl substituted morphinan derivative” (2013):

What was measured:
[1] = biological target: Mu-type opioid receptor (Rattus norvegicus, UniProt P33535); assay: (§1) Binding Assay: Binding assay of opioid receptor.
[2] = biological target: Delta-type opioid receptor (Rattus norvegicus, UniProt P33533); assay: as §1
Delta-type opioid receptor, sequence (P33533 whole entry): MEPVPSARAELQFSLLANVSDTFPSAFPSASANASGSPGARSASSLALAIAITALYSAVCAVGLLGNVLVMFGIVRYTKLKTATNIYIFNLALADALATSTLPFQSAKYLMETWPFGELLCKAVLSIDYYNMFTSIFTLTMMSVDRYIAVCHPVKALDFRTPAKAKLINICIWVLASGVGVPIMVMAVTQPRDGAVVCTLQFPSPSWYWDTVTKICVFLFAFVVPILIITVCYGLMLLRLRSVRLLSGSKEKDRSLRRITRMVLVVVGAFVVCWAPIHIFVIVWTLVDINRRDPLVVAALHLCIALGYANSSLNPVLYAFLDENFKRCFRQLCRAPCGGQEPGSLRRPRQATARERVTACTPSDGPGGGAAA

Mu-type opioid receptor, sequence (P33535 whole entry): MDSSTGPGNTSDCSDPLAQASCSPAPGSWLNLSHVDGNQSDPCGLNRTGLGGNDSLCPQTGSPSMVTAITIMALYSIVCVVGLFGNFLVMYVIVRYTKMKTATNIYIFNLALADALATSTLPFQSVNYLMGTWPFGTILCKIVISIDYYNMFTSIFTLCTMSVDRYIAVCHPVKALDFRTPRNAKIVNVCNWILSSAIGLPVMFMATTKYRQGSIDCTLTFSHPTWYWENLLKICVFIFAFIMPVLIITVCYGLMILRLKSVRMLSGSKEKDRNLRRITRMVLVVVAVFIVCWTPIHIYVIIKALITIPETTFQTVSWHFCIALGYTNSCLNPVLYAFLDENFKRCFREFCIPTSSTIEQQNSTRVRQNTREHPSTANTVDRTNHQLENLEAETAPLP

Row | Compound | Ki [1] | Ki [2]
1 | CC(C)NC(=O)C1=C(NS(=O)(=O)c2ccc(Cl)cc2)[C@@H]2Oc3c(O)ccc4c3[C@@]23CCN(CC2CC2)[C@H](C4)[C@]3(O)C1 | 11 nM | 0.56 nM
2 | COc1ccc(NC(=O)C2=C(O)[C@@H]3Oc4c(O)ccc5c4[C@@]34CCN(CC3CC3)[C@H](C5)[C@]4(O)C2)cn1 | 2.29 nM | 27.6 nM
